Data on 22 molecules can be found in ChEMBL document CHEMBL2417377, “Hit-to-lead optimization and kinase selectivity of imidazo[1,2-a]quinoxalin-4-amine derived JNK1 inhibitors” (Bioorg Med Chem Lett, 2013).

Test [1] deals with T1, Mitogen-activated protein kinase 8 (Homo sapiens, UniProt P45983). Nature of the test: Inhibition of human recombinant histidine-tagged full-length JNK1 expressed in insect cells activated by GST-tagged MAP2K7 using ATF2 as substrate after 1 hr by luminescence plate reader analysis.
T1 sequence (P45983 whole entry): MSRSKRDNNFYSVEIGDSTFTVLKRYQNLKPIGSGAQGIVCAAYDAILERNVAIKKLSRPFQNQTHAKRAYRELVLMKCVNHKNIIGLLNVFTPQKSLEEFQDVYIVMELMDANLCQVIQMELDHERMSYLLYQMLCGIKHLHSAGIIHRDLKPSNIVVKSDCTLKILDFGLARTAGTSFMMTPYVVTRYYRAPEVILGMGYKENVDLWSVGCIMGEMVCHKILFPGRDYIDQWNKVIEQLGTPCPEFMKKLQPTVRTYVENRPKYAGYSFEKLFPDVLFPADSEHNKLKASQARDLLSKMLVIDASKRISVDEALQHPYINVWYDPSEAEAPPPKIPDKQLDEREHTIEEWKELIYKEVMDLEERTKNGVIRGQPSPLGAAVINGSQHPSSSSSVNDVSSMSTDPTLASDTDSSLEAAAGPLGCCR
Test [2] concerns the target T1, Mitogen-activated protein kinase 8. Nature of the test: Inhibition of JNK1 in human Jurkat cell lysates using desthiobiotin-tagged ATP probe AX9989 followed by trypsinization by LC/MS analysis.
The target of test [3] is Mitogen-activated protein kinase 9 (Homo sapiens, UniProt P45984). The test can be described thus: Inhibition of JNK2 in human Jurkat cell lysates using desthiobiotin-tagged ATP probe AX9989 followed by trypsinization by LC/MS analysis.
Mitogen-activated protein kinase 9, sequence (P45984 whole entry): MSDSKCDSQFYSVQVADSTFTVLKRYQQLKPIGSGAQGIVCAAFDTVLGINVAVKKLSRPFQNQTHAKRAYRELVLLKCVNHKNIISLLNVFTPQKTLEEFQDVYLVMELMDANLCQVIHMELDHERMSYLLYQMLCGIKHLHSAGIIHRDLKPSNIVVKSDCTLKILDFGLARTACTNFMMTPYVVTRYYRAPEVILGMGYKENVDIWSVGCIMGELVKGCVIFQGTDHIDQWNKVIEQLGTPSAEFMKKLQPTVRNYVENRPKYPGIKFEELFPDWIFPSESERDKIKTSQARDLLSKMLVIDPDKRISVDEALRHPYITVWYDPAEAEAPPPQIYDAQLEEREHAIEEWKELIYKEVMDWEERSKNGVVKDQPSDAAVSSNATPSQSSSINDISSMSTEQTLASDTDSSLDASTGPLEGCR

As usually defined, the IC50 is the midpoint of a concentration-inhibition curve.

As to `NC(=O)c1ccc2c(c1)nc(N[C@H]1CC[C@H](O)CC1)c1nccn12`, the IC50 in test [1] came to 4170 nM.

On to `O=C(NC1(c2ccccc2)CCCCC1)c1ccc2nc(N[C@H]3CC[C@H](O)CC3)c3nccn3c2c1`, for which the IC50 in test [1] was found to be 1220 nM.

Turning to `O=C(NC1(c2ccc(Cl)cc2)CC1)c1ccc2nc(N[C@H]3CC[C@H](O)CC3)c3nccn3c2c1`, the IC50 in test [2] is 140 nM; in test [1], 190 nM; in test [3], greater than 190 nM.

With `O=C(O)c1ccc2c(c1)nc(N[C@H]1CC[C@H](O)CC1)c1nccn12`, the IC50 came out at 82 nM in test [2] and 1500 nM in test [1].

On to `O=C(NC1(c2ccccc2)CCCCCC1)c1ccc2nc(N[C@H]3CC[C@H](O)CC3)c3nccn3c2c1`, for which, in test [1], the IC50 stood at 430 nM.

As for `O=C(N[C@H](CCO)c1ccccc1)c1ccc2nc(N[C@H]3CC[C@H](O)CC3)c3nccn3c2c1`, in test [1], the IC50 was determined as 620 nM.

Take `O[C@H]1CC[C@H](NC2=Nc3ccccc3N3CCN=C23)CC1`: in test [1], the IC50 was 73000 nM.

Regarding `COC[C@@H](NC(=O)c1ccc2nc(N[C@H]3CC[C@H](O)CC3)c3nccn3c2c1)c1ccccc1`, in test [1], the 50% inhibitory concentration (IC50) was found to be 690 nM.

As to `O=C(NCc1ccccc1)c1ccc2c(c1)nc(N[C@H]1CC[C@H](O)CC1)c1nccn12`, the IC50 in test [1] is 490 nM.

Take `CS(=O)(=O)N[C@H]1CC[C@H](Nc2nc3ccccc3n3ccnc23)CC1`: the IC50 in test [1] was 2400 nM.

With `O[C@H]1CC[C@H](Nc2nc3ccccc3n3cccc23)CC1`, the IC50 in test [1] was greater than 100000 nM.

With `FC1(F)CCC(Nc2nc3ccccc3n3ccnc23)CC1`, in test [1], the concentration for half-maximal inhibition (IC50) was determined as 8000 nM.

For the molecule `O=C(NC1(c2ccccc2)CCCC1)c1ccc2nc(N[C@H]3CC[C@H](O)CC3)c3nccn3c2c1`, the IC50 in test [1] was found to be 180 nM.

Turning to `O=C(NCc1ccccc1)c1ccc2nc(N[C@H]3CC[C@H](O)CC3)c3nccn3c2c1`, the IC50 in test [1] was determined as 680 nM.

`C[C@@H](NC(=O)c1ccc2c(c1)nc(N[C@H]1CC[C@H](O)CC1)c1nccn12)c1ccccc1`: in test [1], the IC50 stood at 1500 nM.

On to `CC[C@H](NC(=O)c1ccc2nc(N[C@H]3CC[C@H](O)CC3)c3nccn3c2c1)c1ccccc1`, for which the IC50 in test [1] amounted to 1700 nM.

Regarding `N[C@H]1CC[C@H](Nc2nc3ccccc3n3ccnc23)CC1`, the IC50 in test [1] was determined as 1700 nM.

As to `Cc1ccc(C2(NC(=O)c3ccc4nc(N[C@H]5CC[C@H](O)CC5)c5nccn5c4c3)CC2)cc1`, the half-maximal inhibitory concentration (IC50) in test [1] amounted to 250 nM.

Consider `CC(C)[C@@H](NC(=O)c1ccc2nc(N[C@H]3CC[C@H](O)CC3)c3nccn3c2c1)c1ccccc1`, for which the IC50 in test [1] is 350 nM.

For the molecule `O=C(N[C@@H](CO)c1ccccc1)c1ccc2nc(N[C@H]3CC[C@H](O)CC3)c3nccn3c2c1`, the IC50 in test [1] stood at 4900 nM.

`O=C(NC(c1ccccc1)c1ccccc1)c1ccc2nc(N[C@H]3CC[C@H](O)CC3)c3nccn3c2c1`: the IC50 in test [1] turned out to be 360 nM.

As to `CCC(CC)(NC(=O)c1ccc2nc(N[C@H]3CC[C@H](O)CC3)c3nccn3c2c1)c1ccccc1`, the IC50 in test [2] is 59 nM; in test [1] it was 160 nM; in test [3], greater than 190 nM.
